# Reference: ChEMBL document CHEMBL5584304, “Unlocking the Potential of Glutinol: Structural Diversification and Antifungal Activity against Phytopathogenic Fusarium Strains” (2024)
# Columns and labels:
# Assay type in all cases: functional
# Conditions in all cases: time 24-48 hrs
# [1] = test system: Fusarium solani; test: Antifungal activity against Fusarium solani measured after 24 to 48 hrs by turbidimetry
# [2] = test system: Fusarium tucumaniae; test: Antifungal activity against Fusarium tucumaniae measured after 24 to 48 hrs by turbidimetry
# [3] = test system: Fusarium graminearum; test: Antifungal activity against Fusarium graminearum measured after 24 to 48 hrs by turbidimetry
SMILES,MIC [1],MIC [2],MIC [3]
CC1(C)CC[C@]2(C)CC[C@]3(C)c4ccc5c(c4CC[C@@]3(C)[C@@H]2C1)C=C(Br)C(=O)C5(C)C,> 50 µg/mL,51.7 µM,51.7 µM
CC1(C)CC[C@]2(C)CC[C@]3(C)c4ccc5c(c4CC[C@@]3(C)[C@@H]2C1)C=CC(=O)C5(C)C,> 50 µg/mL,123 µM,123 µM
CC1(C)CC[C@]2(C)CC[C@]3(C)[C@H]4CC=C5C(=Cc6n[nH]c(=S)nc6C5(C)C)[C@]4(C)CC[C@@]3(C)[C@@H]2C1,25.4 µM,102 µM,50.8 µM
CC1(C)CC[C@]2(C)CC[C@]3(C)[C@H]4C=CC5=C(C=CC(=O)C5(C)C)[C@]4(C)CC[C@@]3(C)[C@@H]2C1,> 50 µg/mL,119 µM,> 50 µg/mL
N#Cc1c[nH]cc1-c1cccc2c1OC(F)(F)O2 [FLUDIOXONIL],12.6 µM,17.8 µM,17.8 µM
CC1(C)CC[C@]2(C)CC[C@]3(C)[C@H]4C=CC5=C(C=C(Br)C(=O)C5(C)C)[C@]4(C)CC[C@@]3(C)[C@@H]2C1,> 50 µg/mL,100 µM,> 50 µg/mL
CC1(C)CC[C@]2(C)CC[C@]3(C)[C@H]4CC=C5[C@@H](CC(Br)(Br)C(=O)C5(C)C)[C@]4(C)CC[C@@]3(C)[C@@H]2C1,> 50 µg/mL,85.9 µM,> 50 µg/mL
CC1(C)CC[C@]2(C)CC[C@]3(C)[C@H]4CC=C5[C@@H](Cc6c([nH]c7ccccc67)C5(C)C)[C@]4(C)CC[C@@]3(C)[C@@H]2C1,> 50 µg/mL,> 50 µg/mL,> 50 µg/mL
CC1(C)CC[C@]2(C)CC[C@]3(C)[C@H]4CC=C5[C@@H](Cc6sc(N)nc6C5(C)C)[C@]4(C)CC[C@@]3(C)[C@@H]2C1,> 50 µg/mL,107 µM,> 50 µg/mL
CC1(C)CC[C@]2(C)CC[C@]3(C)[C@H]4CC=C5C(C)(C)C(=O)CC[C@@]5(O)[C@]4(C)CC[C@@]3(C)[C@@H]2C1,56.7 µM,113 µM,> 50 µg/mL
CC1(C)CC[C@]2(C)CC[C@]3(C)[C@H]4CC=C5C(=CC6=NC(N)=N[C@]6(O)C5(C)C)[C@]4(C)CC[C@@]3(C)[C@@H]2C1,> 50 µg/mL,108 µM,> 50 µg/mL
CC1(C)CC[C@]2(C)CC[C@]3(C)[C@H]4CC=C5C(=Cc6nc7ccccc7nc6C5(C)C)[C@]4(C)CC[C@@]3(C)[C@@H]2C1,> 50 µg/mL,98.2 µM,> 50 µg/mL
CC1(C)CC[C@]2(C)CC[C@]3(C)[C@H]4CC=C5[C@@H](Cc6cnoc6C5(C)C)[C@]4(C)CC[C@@]3(C)[C@@H]2C1,55.8 µM,55.8 µM,> 50 µg/mL
Cc1cc2c(c(C)c1O)CC[C@H]1[C@@]2(C)CC[C@@]2(C)[C@@H]3CC(C)(C)CC[C@]3(C)CC[C@]12C,> 50 µg/mL,118 µM,> 50 µg/mL
CC1(C)CC[C@]2(C)CC[C@]3(C)[C@H]4CC=C5[C@@H](CCC(=O)C5(C)C)[C@]4(C)CC[C@@]3(C)[C@@H]2C1 [GLUTINONE],> 50 µg/mL,118 µM,118 µM
CC1(C)CC[C@]2(C)CC[C@]3(C)[C@@H](CC=O)[C@](C)([C@@H]4CC[C@H](O)C(C)(C)C4=O)CC[C@@]3(C)[C@@H]2C1,109 µM,109 µM,54.5 µM
CC(=O)O[C@H]1CC[C@@H]([C@]2(C)CC[C@@]3(C)[C@@H]4CC(C)(C)CC[C@]4(C)CC[C@]3(C)[C@H]2CC=O)C(=O)C1(C)C,49.9 µM,49.9 µM,99.8 µM
CC1(C)CC[C@]2(C)CC[C@]3(C)[C@H]4CC=C5[C@@H](Cc6cnn(-c7nc8ccccc8s7)c6C5(C)C)[C@]4(C)CC[C@@]3(C)[C@@H]2C1,43 µM,85.9 µM,85.9 µM
CC1(C)CC[C@]2(C)CC[C@]3(C)[C@H]4CC=C5C(=CCC(=O)C5(C)C)[C@]4(C)CC[C@@]3(C)[C@@H]2C1,> 50 µg/mL,> 50 µg/mL,118 µM
CC1(C)CC[C@]2(C)CC[C@]3(C)[C@H]4CC=C5C(=CC(=O)C(=O)C5(C)C)[C@]4(C)CC[C@@]3(C)[C@@H]2C1,114 µM,> 50 µg/mL,> 50 µg/mL
COC(=O)Nc1nc2ccccc2[nH]1 [CARBENDAZIM],4.09 µM,4.09 µM,8.18 µM
CC1(C)CC[C@]2(C)CC[C@]3(C)[C@H]4CC=C5[C@@H](CC[C@H](O)C5(C)C)[C@]4(C)CC[C@@]3(C)[C@@H]2C1 [GLUTINOL],> 50 µg/mL,117 µM,> 50 µg/mL
CC1(C)CC[C@]2(C)CC[C@]3(C)[C@H]4CC=C5[C@@H](CC(C=O)=C(O)C5(C)C)[C@]4(C)CC[C@@]3(C)[C@@H]2C1,55.2 µM,110 µM,110 µM
CC1(C)CC[C@]2(C)CC[C@]3(C)[C@H]4CC=C5[C@@H](CC(Br)C(=O)C5(C)C)[C@]4(C)CC[C@@]3(C)[C@@H]2C1 (stereo partly drawn),> 50 µg/mL,> 50 µg/mL,> 50 µg/mL
COC(=O)N(OC)c1ccccc1COc1ccn(-c2ccc(Cl)cc2)n1 [PYRACLOSTROBIN],1.42 µM,1.01 µM,1.01 µM
C=C(C)C1=CC[C@H]2[C@@](C)(CC[C@@]3(C)[C@@H]4CC(C)(C)CC[C@]4(C)CC[C@]23C)[C@@H]1CCC#N,59.2 µM,59.2 µM,> 50 µg/mL
